Test results published in patent publication US20110045101A1, “FUNGICIDAL SUBSTITUTED AZOLES” (E.I. Du Pont De Nemours and Company, priority 2009, published 2011).
Marks after values point to notes of the source that are not given here.

Legend:
Format in all cases: in vivo
Septoria nodorum = assay: Test F: wheat glume blotch on wheat seedlings, sprayed the day before inoculation, visual disease rating; settings: 100 = 100% disease control; for pest or weed control at 200 ppm: Parastagonospora nodorum, 264 h
Outline: (§1)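 Compounds were dissolved in acetone (3% of final volume), then suspended in 50/50 acetone/purified water with 250 ppm Trem® 014 surfactant. Suspensions at 200 ppm (some at 40 ppm) were sprayed to run-off, 200 ppm being equivalent to 500 g/ha.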

Septoria tritici = assay: Test G: wheat leaf blotch on wheat seedlings, sprayed the day before inoculation, visual disease rating; settings: 100 = 100% disease control; for pest or weed control at 200 ppm: Zymoseptoria tritici, 504 h
Outline: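 Compounds dissolved in acetone (3% of final volume), then suspended in 50/50 acetone/water with 250 ppm Trem® 014 and sprayed to run-off on seedlings at 200 ppm (≈500 g/ha) or 40 ppm where marked. Inoculation with spores followed next day; visual rating after 48 h saturated at 24° C plus 19 days at 20° C.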

Alternaria solani = assay: Test D: tomato early blight, sprayed the day before inoculation, visual disease rating; settings: 100 = 100% disease control; for pest or weed control at 200 ppm: Alternaria solani, 168 h
Outline: as §1

[1] = test system: Puccinia recondita f. sp. tritici; assay: Test I: wheat leaf rust on wheat seedlings, sprayed the day before inoculation, visual disease rating; settings: 100 = 100% disease control; for pest or weed control at 200 ppm: Puccinia recondita, 168 h
Outline: as §1

Botrytis cinerea = assay: Test C: tomato Botrytis on tomato seedlings, sprayed the day before inoculation, visual disease rating; settings: 100 = 100% disease control; for pest or weed control at 200 ppm: Botrytis cinerea, 120 h
Outline: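 Compounds were dissolved in acetone (3% of final volume), then suspended in 50/50 acetone/purified water containing 250 ppm polyhydric alcohol ester surfactant. Suspensions were sprayed to run-off on tomato seedlings at 200 ppm, equivalent to 500 g/ha, or at 40 ppm where marked.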

[2] = test system: Erysiphe graminis f. sp. tritici; assay: Test J: wheat powdery mildew on wheat seedlings, sprayed the day before inoculation, visual disease rating; settings: 100 = 100% disease control; for pest or weed control at 200 ppm: Blumeria graminis, 168 h
Outline: as §1

[3] = 200 ppm, 0 = no control relative to controls
[4] = 40 ppm (marked *), 0 = no control

SMILES | Test F disease control rating (Septoria nodorum; 200 ppm, 0 = no control) | Test G disease control rating (Septoria tritici; 200 ppm, 0 = no control) | Test D disease control rating (Alternaria solani; 200 ppm, 0 = no control) | Test I disease control rating ([1]; 200 ppm, 0 = no control) | Test C disease control rating (Botrytis cinerea; 200 ppm, 0 = no control) | Test J disease control rating ([2]; 200 ppm, 0 = no control) | Test F disease control rating (Septoria nodorum; [3]) | Test G disease control rating (Septoria tritici; [3]) | Test D disease control rating (Alternaria solani; [3]) | Test I disease control rating [1, 3] | Test C disease control rating (Botrytis cinerea; [3]) | Test J disease control rating [2, 3] | also measured
Cc1ccc(-n2c(C)nc(Cl)c2-c2c(F)ccc(F)c2F)cc1 [compound 155] | 87% | 95% | 100% | 99% | 99% | 100% |  |  |  |  |  |  | 
COc1cc(F)c(-c2c(C)ncn2-c2ccccn2)c(F)c1 [compound 250] | 0% | 83% | 100% | 99% | 99% | 94% |  |  |  |  |  |  | 
Cc1nc(Cl)c(-c2c(F)cccc2Cl)n1-c1ccc(Cl)c(F)c1 [compound 244] | 99% | 96% | 100% | 99% | 100% | 100% |  |  |  |  |  |  | 
Fc1cc(-n2c(Cl)nc(CCl)c2-c2ccccc2F)ccc1Cl [compound 259] | 0% | 63% | 16% | 82% | 99% | 93% |  |  |  |  |  |  | 
Cc1ccc(-n2cnc(Cl)c2-c2c(F)cc(F)cc2F)cc1 [compound 139] |  |  |  |  |  |  | 0% | 75% | 100% | 98% | 99% | 98% | 
Cc1nc(Cl)c(-c2c(F)cccc2C(F)(F)F)n1-c1ccc(Cl)cc1 [compound 94] |  |  |  |  |  |  | 0% | 95% | 53% | 99% | 56% | 100% | 
COc1ccc(Cn2c(Cl)nc(Cl)c2-c2c(F)cccc2F)cc1Cl [compound 213] | 0% | 96% | 0% | 100% | 63% | 42% |  |  |  |  |  |  | 
COc1ccc(-c2c(Cl)nc(C)n2-c2ccc(Cl)cc2)c(F)c1C [compound 114] |  |  |  |  |  |  | 0% | 95% | 0% | 41% | 93% | 72% | 
COc1cc(F)c(-c2c(Cl)ncn2-c2cccc(F)c2)c(F)c1 [Compound 246, 4-chloro-5-(2,6-difluoro-4-methoxyphenyl)-1-(3-fluorophenyl)-1H-imidazole] |  |  |  |  |  |  |  |  |  |  |  |  | pest or weed control at 200 ppm (Septoria nodorum; 200 ppm, 0 = no control): 95%; pest or weed control at 200 ppm (Septoria tritici; 200 ppm, 0 = no control): 93%; pest or weed control at 200 ppm (Alternaria solani; 200 ppm, 0 = no control): 100%; pest or weed control at 200 ppm ([1]; 200 ppm, 0 = no control): 100%; pest or weed control at 200 ppm (Botrytis cinerea; 200 ppm, 0 = no control): 100%; pest or weed control at 200 ppm ([2]; 200 ppm, 0 = no control): 99%
Fc1cccc(F)c1-n1c(Br)nc(Cl)c1-c1ccc(Cl)cc1 [compound 164] |  |  |  |  |  |  |  |  |  |  |  |  | Test F disease control rating (Septoria nodorum; [4]): 0* %; Test G disease control rating (Septoria tritici; [4]): 96* %; Test D disease control rating (Alternaria solani; [4]): 88* %; Test I disease control rating [1, 4]: 19* %; Test C disease control rating (Botrytis cinerea; [4]): 91* %; Test J disease control rating [2, 4]: 94* %
COc1cc(F)c(-c2c(Cl)nc(I)n2-c2ccc(Cl)c(F)c2)c(F)c1 [compound 241] | 100% | 96% | 100% | 96% | 100% | 93% |  |  |  |  |  |  | 
Cc1nc(Cl)c(Cc2c(F)cccc2F)n1-c1ccc(Cl)cc1 [compound 258] | 42% | 87% | 0% | 97% | 99% | 78% |  |  |  |  |  |  | 
Cc1nc(Cl)c(-c2c(F)ccc(F)c2Cl)n1-c1ccc(Cl)cc1 [compound 80] |  |  |  |  |  |  | 100% | 98% | 100% | 100% | 90% | 100% | 
Fc1cc(F)cc(-n2c(Br)nc(Cl)c2-c2c(F)cccc2F)c1 [compound 54] |  |  |  |  |  |  | 0% | 87% | 24% | 99% | 92% | 91% | 
Fc1ccc(-n2c(Br)nc(Cl)c2-c2c(F)ccc(F)c2Cl)cc1 [compound 195] | 64% | 94% | 100% | 100% | 99% | 94% |  |  |  |  |  |  | 
Fc1cc(F)c(-n2c(Br)nc(Br)c2-c2ccc(Cl)cc2)c(F)c1 [compound 218] |  |  |  |  |  |  |  |  |  |  |  |  | Test F disease control rating (Septoria nodorum; [4]): 0* %; Test G disease control rating (Septoria tritici; [4]): 91* %; Test D disease control rating (Alternaria solani; [4]): 99* %; Test I disease control rating [1, 4]: 80* %; Test C disease control rating (Botrytis cinerea; [4]): 99* %; Test J disease control rating [2, 4]: 73* %
Cc1ccc(-n2c(Br)nc(Cl)c2-c2c(F)cccc2F)cc1F [compound 170] | 0% | 95% | 98% | 99% | 97% | 99% |  |  |  |  |  |  | 
Fc1cccc(F)c1-c1c(Cl)nc(Br)n1Cc1cccc(Cl)c1 [compound 101] |  |  |  |  |  |  | 0% | 97% | 0% | 100% | 88% | 99% | 
COc1cc(F)c(-n2c(Br)nc(Br)c2-c2ccc(Cl)cc2)c(F)c1 [compound 242] |  |  |  |  |  |  |  |  |  |  |  |  | Test F disease control rating (Septoria nodorum; [4]): 51* %; Test G disease control rating (Septoria tritici; [4]): 95* %; Test D disease control rating (Alternaria solani; [4]): 95* %; Test I disease control rating [1, 4]: 89* %; Test C disease control rating (Botrytis cinerea; [4]): 99* %; Test J disease control rating [2, 4]: 92* %
Fc1ccc(-c2c(Cl)nnn2-c2ccc(Cl)cc2)c(F)c1 [Compound 24, 4-chloro-1-(4-chlorophenyl)-5-(2,4-difluorophenyl)-1H-1,2,3-triazole] |  |  |  |  |  |  |  |  |  |  |  |  | pest or weed control at 200 ppm (Septoria nodorum; [3]): 0%; pest or weed control at 200 ppm (Septoria tritici; [3]): 67%; pest or weed control at 200 ppm (Alternaria solani; [3]): 0%; pest or weed control at 200 ppm [1, 3]: 28%; pest or weed control at 200 ppm (Botrytis cinerea; [3]): 90%; pest or weed control at 200 ppm [2, 3]: 95%
